Measured values reported in patent US20130202594A1, “ALK1 Antagonists and Their Uses in Treating Renal Cell Carcinoma” (priority 2012, published 2013).
pKd: −log10 of the molar value. Entries after “also recorded” stand apart in the source; their conditions may differ.

Legend:
[1] = Size exclusion chromatography of ALK1-Fc preparations (dimers vs aggregates); format: physicochemical
Procedure: The R&D Systems material contains approximately 13% aggregated protein, as shown by the peaks on the left hand side of the graph, as well as some lower molecular weight species. The material of SEQ ID NO:3 is greater than 99% composed of dimers of the appropriate molecular size.
In one approach, a number of different cell culture media were tested. […] The resulting material is comprised of greater than 99% dimers. […] Having identified aggregate formation as a significant problem in ALK1-Fc production, it is expected that other approaches may be developed, including approaches that involve additional purification steps (although such approaches may result in lower yield of purified protein).

GDF7 = target: T1, GDF7 (Homo sapiens, UniProt Q7Z4P5); assay: Biacore binding to hALK1-Fc: GDF7
T1 sequence (Q7Z4P5 322-450): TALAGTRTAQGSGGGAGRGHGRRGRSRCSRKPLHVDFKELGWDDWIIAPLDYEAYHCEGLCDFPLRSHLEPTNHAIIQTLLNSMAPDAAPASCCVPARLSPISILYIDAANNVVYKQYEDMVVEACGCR
Procedure: (§1) ALK1 is a type 1 receptor for ligands of the TGFβ family. Multiple members of the TGFβ family were tested for binding to a human ALK1-Fc fusion protein, using a Biacore™ system.

BMP10 = target: T2, BMP10 (Homo sapiens, UniProt O95393); assay: Biacore binding to hALK1-Fc: BMP10
T2 sequence (O95393 317-424): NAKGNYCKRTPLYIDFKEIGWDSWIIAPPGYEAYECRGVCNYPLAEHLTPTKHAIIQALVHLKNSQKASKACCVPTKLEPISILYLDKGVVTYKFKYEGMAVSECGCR
Procedure: as §1

BMP2 = target: T3, BMP2 (Homo sapiens, UniProt P12643); assay: Biacore binding to hALK1-Fc: BMP2
T3 sequence (P12643 283-396): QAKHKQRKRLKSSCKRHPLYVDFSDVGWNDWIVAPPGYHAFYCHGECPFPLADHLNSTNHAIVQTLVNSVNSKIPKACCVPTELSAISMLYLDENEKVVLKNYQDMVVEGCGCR
Procedure: as §1

[2] = tested on: angiogenesis in chick chorioallantoic membrane; assay: CAM (chick chorioallantoic membrane) angiogenesis assay; format: in vivo
Text: In preferred embodiments, an ALK1 ECD polypeptide binds to one or more of GDF5, GDF6, GDF7, BMP9 and BMP10. […] Binding may be assessed using purified proteins in solution or in a surface plasmon resonance system, such as a Biacore™ system. […] Bioassays for angiogenesis inhibitory activity include the chick chorioallantoic membrane (CAM) assay, the mouse corneal micropocket assay, or an assay known in the art for measuring the effect of administering isolated or synthesized proteins on implanted tumors. The CAM assay is described by O'Reilly, et al., in “Angiogenic Regulation of Metastatic Growth” Cell, 1994; 79 (2):315-328. Briefly, 3 day old chicken embryos with intact yolks are separated from the egg and placed in a petri dish. After 3 days of incubation, a methylcellulose disc containing the protein to be tested is applied to the CAM of individual embryos. After 48 hours of incubation, the embryos and CAMs are observed to determine whether endothelial growth has been inhibited. The mouse corneal micropocket assay involves implanting a growth factor-containing pellet, along with another pellet containing the suspected endothelial growth inhibitor, in the cornea of a mouse and observing the pattern of capillaries that are elaborated in the cornea. Other assays are described in the Examples.
VEGF and FGF are well-known to stimulate angiogenesis. A CAM (chick chorioallantoic membrane) assay system was used to assess the angiogenic effects of GDF7.
ALK1-Fc fusions were tested for anti-angiogenic activity in the CAM assay.
ALK1-Fc proteins and a commercially available, anti-angiogenic anti-VEGF monoclonal antibody were compared in the CAM assay. The ALK1-Fc proteins had similar potency as compared to anti-VEGF. The anti-VEGF antibody bevacizumab is currently used in the treatment of cancer and macular degeneration in humans.

MDA-MB-231 cell line = assay: MDA-MB-231-Luc orthotopic breast cancer xenograft; format: in vivo, mouse; conditions: similar experiment; dose levels as low as 3 mg/kg
Text: The MDA-MB-231 breast cancer cell line (derived from ER− cells) was stably transfected with the luciferase gene to allow for the in vivo detection of tumor growth and potential metastasis. In this study, 1×10^6 MDA-MB-231-Luc cells were implanted orthotopically in the mammary fat pad of athymic nude mice (Harlan). Tumor progression was followed by bioluminescent detection using an IVIS Spectrum imaging system (Caliper Life Sciences). An increase in the luminescence (number of photons detected) corresponds to an increase in tumor burden.
Thirty female nude mice were injected with 1×10^6 tumor cells into the mammary fat pad. Three days after tumor implantation the mice were treated with either vehicle control or mALK1-Fc (30 mg/kg) twice per week by subcutaneous (SC) injection. […] This may be expected of an antiangiogenic compound in that tumors may be able to survive to a certain size before requiring new blood vessel formation to support continued growth.

MCF-7 cell line = assay: MCF-7 orthotopic breast cancer xenograft; format: in vivo, mouse; conditions: 10 or 30 mg/kg twice per week IP
Procedure: The estrogen-receptor-positive (ER+), luciferase expressing cell line, MCF-7, was also tested in an orthotopic implantation model. In this model, female nude mice are implanted subcutaneously with a 60 day slow release pellet of 17β-estradiol. Two days following pellet implantation, 5×10^6 MCF-7 tumor cells were implanted into the mammary fat pad. Mice were treated twice per week with hALK1-Fc at 3, 10 and 30 mg/kg, or vehicle control, by the IP route. Tumor progression was followed by bioluminescent imaging on a weekly basis with an IVIS-Spectrum imager (Caliper Life Sciences). In vehicle treated mice tumors progressed rapidly until study day 26 (FIG. 15). After day 26, there were fluctuations in tumor luminescence until the conclusion of the study at day 60 (when the estradiol pellets were depleted). These fluctuations are due to a common feature of this model in that the rapid tumor growth can exceed the angiogenic response of the host animals leading to tumor necrosis and a concomitant drop-off in luminescent signal. The remaining cells continue to grow leading to an increased signal.

[3] = tested on: BMP10 signaling (Smad1/5/8 reporter) in T98G cells; assay: BMP10 signaling reporter assay in T98G cells transfected with ALK1; format: cell-based, human; conditions: 65 ng/ml, BMP10 1 ng/ml
Procedure: Effects of hALK-Fc on BMP10 signaling were determined in a cell-based assay, in which human glioblastoma T98G cells were transfected with three plasmids: 1) an expression construct encoding full-length ALK1; 2) a firefly-luciferase reporter construct (see Example 3) responsive to Smad1/5/8-mediated signaling, and 3) a Renilla-luciferase control construct. Treatment of transfected cells with recombinant human BMP10 (1 ng/ml) strongly stimulated firefly luciferase activity relative to Renilla luciferase activity (FIG. 16). Omission of the ALK1 expression construct reduced BMP10-stimulated activity by approximately two-thirds (data not shown), thus implicating ALK1 as a major mediator of the BMP10 signal. Treatment of fully transfected cells with hALK1-Fc (65 ng/ml) and BMP10 (1 ng/ml) reduced the transcriptional response compared to BMP10 alone by more than 80% (FIG. 16).

pKd (GDF7): ~7.30
pKd (BMP10): ~8.52
Substance: hALK1-Fc: extracellular domain of human ALK1 (amino acids 22-120) fused to a human IgG1 Fc with a minimal linker (SEQ ID NO:3/14)
dimers [1]: greater than 99%
binding to hALK1-Fc (BMP2): failed to show substantial binding; also recorded: only limited binding
anti-angiogenic effect compared with anti-VEGF monoclonal antibody [2]: comparable to the effects of the anti-VEGF antibody
anti-angiogenic effect on angiogenesis stimulated by VEGF, FGF and GDF7 [2]: inhibits angiogenesis stimulated by VEGF, FGF and GDF7
tumor progression (bioluminescence) (MDA-MB-231 cell line): similar, if slightly lesser, effects
tumor size / growth (bioluminescence) (MCF-7 cell line): maintain tumor size at a constant level; also recorded: significant growth-delaying effect
reduction of transcriptional response compared to BMP10 alone [3]: more than 80%
